Assay results published in patent publication US9616006B2, “Methods and compositions for treating dermatological diseases and conditions” (priority 2007, dated 2017).

What was measured:
PGE2 = assay: TPA-induced PGE2 production in keratinocytes (ELISA); format: cell-based, human; details: Homo sapiens, Keratinocyte, read-out: Percent Inhibition of PGE2
IL-6 [1] = assay: TPA-induced IL-6 production in keratinocytes (ELISA); format: cell-based, human; details: Homo sapiens, Keratinocyte, read-out: Percent Inhibition of IL-6
IL-6 [2] = assay: UV-induced IL-6 production in keratinocytes (ELISA); format: cell-based, human; details: Homo sapiens, Keratinocyte, read-out: Percent Inhibition of IL-6
Protocol: (§1) In one study, various concentrations of DHE were added to culture medium and these media were placed on human fibroblast cell cultures (results shown in FIG. 1). Cells were either not induced or induced with UVB radiation to stimulate cytokine/PGE-2 production. At 24 hours after treatment, the cell culture medium was removed and assayed by ELISA methods for the expression of PGE-2, various cytokines and chemokines.
(§2) When similar experiments were carried out with human keratinocytes, DHE was again found to markedly suppress the UVR induction of PGE-2, with a concentration of 50 uM inhibiting the production of PGE-2 by over 60% (results shown in FIG. 2). […] Further, since PGE-2 is known to be a principal factor in the development of actinic keratosis and skin cancer, DHE can also be used in treating these conditions.
(§3) DHE and IE both have inhibitory effects on production of the inflammatory mediators in keratinocytes.

IL-8 [3] = assay: UV-induced IL-8 production in keratinocytes (ELISA); format: cell-based, human; details: Homo sapiens, Keratinocyte, read-out: Percent Inhibition of IL-8
Protocol: as §1, §2, §3

TNF-α = assay: UV-induced TNF-α production in keratinocytes (ELISA); format: cell-based, human; details: Homo sapiens, Keratinocyte, read-out: Percent Inhibition of TNF-α
Protocol: as §1, §2, §3

PGE-2 = assay: IL-1-induced PGE-2 production in fibroblasts (ELISA); format: cell-based, human; details: Homo sapiens, Fibroblast, Fibroblasts (IL-1), read-out: Percent Inhibition of PGE-2
Protocol: as §1, with “Cells were either not induced or induced with UVB radiation to stimulate cytokine/PGE-2 production.” left out
(§4) DHE and IE both have inhibitory effects on the production of the inflammatory mediators in fibroblasts.

IL-6 [4] = assay: UV-induced IL-6 production in fibroblasts (ELISA); format: cell-based, human; details: Homo sapiens, Fibroblast, read-out: Percent Inhibition of IL-6
Protocol: as §1, §4

IL-8 [5] = assay: UV-induced IL-8 production in fibroblasts (ELISA); format: cell-based, human; details: Homo sapiens, Fibroblast, read-out: Percent Inhibition of IL-8
Protocol: as §1, §4

IL-8 [6] = assay: LPS-induced IL-8 production in monocytes; format: cell-based; details: Monocyte; Monocytes (LPS); 100 uM; read-out: Percent Inhibition of IL-8
Description: (§5) DHE and IE both have inhibitory effects on the production of the inflammatory mediators in monocytes.

MCP-1 = assay: TNF-α-induced MCP-1 production in monocytes; format: cell-based; details: Monocyte, read-out: Percent Inhibition of MCP-1
Description: as §5

IL-12 = assay: TNF-α-induced IL-12 production in monocytes; format: cell-based; details: Monocyte, read-out: Percent Inhibition of IL-12
Description: as §5

[7] = tested on: HAS-2 (Hyaluronic acid synthase-2); assay: HAS-2 mRNA in fibroblasts by RT-PCR; format: cell-based, human; details: 72 hours
Description: The presently claimed and disclosed inventive concept(s) further contemplates use of various DHE, IE and EV compositions and salts, esters, ethers, and derivatives thereof to mitigate the effects of aging on the skin. For all aging studies, normal human fibroblast cell cultures were used. These cells normally produce collagen, elastin and hyaluronic acid. As the skin ages, the fibroblasts in the dermis lose their ability to produce these three key components of skin, and the skin consequently loses elasticity, thickness and smooth texture. In addition, as fibroblasts age, they increase the expression of certain enzymes that destroy collagen and elastin. There are about 13 of these enzymes, collectively referred to as MMPs (matrix metalloproteinases). One of the principal MMPs, MMP-1, is responsible for collagen degradation. For experiments herein to determine the effects of DHE, IE and EV on collagen, elastin and hyaluronic acid, fibroblasts were treated with the compounds for 72 hours, mRNA was then isolated, and analyzed for abundance by RT-PCR (Reverse transcriptase-Polymerase Chain Reaction).
DHE, IE and EV, are also shown herein to stimulate mRNA for HAS-2. HAS-2 (Hyaluronic acid synthase-2) is the enzyme that manufactures hyaluronic acid (HA) in the skin. HA is a glycosaminoglycan important for maintaining moisture and suppleness in the skin. […] As the skin ages, the production of HA decreases and this causes the skin to sag and become thin.

tyrosinase [8] = assay: Melanin synthesis in vitro from L-DOPA catalyzed by tyrosinase (test tube); format: biochemical
Protocol: Two ml of a sodium phosphate buffer, pH 6.8 containing 0.2% L-DOPA (dihydroxyphenylalanine—a tyrosinase substrate) were placed in each of two test tubes. To one test tube was added 20 microliters of ethanol and to the other tube was added 20 microliters of a 1M stock of IE made up in ethanol (labeled TH-212). To start melanin synthesis from the L-DOPA substrate, 20 microliters of a tyrosinase preparation (0.5 mg/ml) was added to both tubes, the tubes were mixed and left at room temperature. The photograph in FIG. 13 was taken 2 hours after the start of the reaction.

[9] = tested on: human melanocyte cultures; assay: Pigment in human melanocyte cultures; format: cell-based; details: treated for 9 days
tyrosinase [10] = assay: DOPA oxidase assay of cell extracts from treated human melanocytes; format: cell-based; details: extracts of human melanocytes treated for 9 days
Protocol: Cell lysates were prepared from human melanocytes. The amount of tyrosinase in these cell lysates was determined by DOPA oxidase assay.
(§6) FIGS. 14-17 show the skin-lightening effects of topically-applied formulations of isoeugenol and its ester isoeugenol acetate (a.k.a. isoeugenyl acetate) in the treatment of hyperpigmented areas in the skin, wherein a reduction of melanin pigment in the skin is caused by the topical application of the formulations. In addition to blocking a post-tyrosinase step in melanin synthesis, IE and IE acetate can inhibit the expression of the tyrosinase protein in human melanocytes. […] If the cell extracts contain tyrosinase when an aliquot of extract is placed in a tube containing L-DOPA (a tyrosinase substrate) in buffer, the enzyme will convert the DOPA to melanin. The melanin will appear brownish-black in the assay tube. If IE or IE-acetate has inhibited tyrosinase synthesis in melanocytes, then the extracts from these cells will contain no enzyme and will not be able to produce melanin from DOPA in the assay tube. […] In this assay, cell extracts from human melanocytes either left untreated or treated with 200 micromolar of either IE or isoeugenol acetate for 9 days are run on SDS polyacrylamide electrophoresis gels to separate tyrosinase from other proteins. The tyrosinase in the gel is then blotted to a membrane and the tyrosinase detected by staining with a specific anti-tyrosinase antibody. The antibody-bound tyrosinase is then visualized by chemiluminescence.

tyrosinase [11] = assay: Western immunoblot of tyrosinase abundance in human melanocyte extracts; format: cell-based
Description: as §6

Molecule `CC=Cc1ccc(O)c(OC)c1` [IE, isoeugenol] has an inhibition at 100 µM (PGE2) of 82%, an inhibition at 100 µM (IL-6 [1]) of 94% and an inhibition at 100 µM (IL-6 [2]) of 93%. For the same molecule, the inhibition at 100 µM (IL-8 [3]) was 76%, the inhibition at 100 µM (TNF-α) was 60% and the inhibition at 100 µM (PGE-2) was 81%. For the same molecule, the inhibition at 100 µM (IL-6 [4]) was 39%, the inhibition at 100 µM (IL-8 [5]) was 2% and the inhibition at 100 µM (IL-8 [6]) was 75%. For the same molecule, the inhibition at 100 µM (MCP-1) was 82%, the inhibition at 100 µM (IL-12) was 100% and the “mRNA for HAS-2” value [7] was “stimulate”. For the same molecule, the melanin synthesis (tyrosinase [8]; 0.2% L-DOPA, pH 6.8, 20 microliters of 1M stock in 2 ml, tyrosinase, 2 hours, room temperature) was “almost completely blocked”, the “darkening of test tubes (melanin production)” value (tyrosinase [8]; tubes containing DOPA, IE and tyrosinase, even after 2 weeks) was “fail to darken” and the “pigment in human melanocyte cultures” value [9] was “loss of pigment”. For the same molecule, the “tyrosinase activity / melanin made from L-DOPA by cell extracts” value (tyrosinase [10]) was “very little melanin was made”, the “tyrosinase activity / melanin made from L-DOPA by cell extracts” value (tyrosinase [10]; listed as TH-212) was “absence of tyrosinase activity” and the “tyrosinase abundance (relative densitometric units)” value (tyrosinase [11]; human melanocyte extracts, 200 μM, 9 days, control approximately 7.25 RDU) was “about 3 RDU”. The “tyrosinase present (western immunoblot)” value (tyrosinase [11]; human melanocytes treated with 200 micromolar for 9 days) was “almost no detectable tyrosinase”.
